Measured values published in patent publication US6787522B2, “Antibacterial agents” (British Biotech Pharmaceuticals, priority 1998, dated 2004).
Values after ≈ are worked out from the molar mass of the structure shown. Like-named read-outs stand apart in the source and are kept apart here.

Assays:
Assay type in all cases: cell-based
[1] = system: methicillin-resistant (MR) Staphylococcus aureus (American Type Culture Collection number 33591); assay: MIC, Nutrient Broth; conditions: S. aureus (MR), 37° C., 20 hours
[2] = system: Klebsiella pneumoniae (American Type Culture Collection number 10031); assay: MIC, Nutrient Broth; conditions: K. pneumoniae, 37° C., 20 hours
[3] = system: Pseudomonas aeruginosa (American Type Culture Collection number 9027); assay: MIC, Nutrient Broth; conditions: P. aeruginosa, 37° C., 20 hours
[4] = system: Helicobacter pylori (American Type Culture Collection number 43504); assay: MIC, Columbia agar base with 7% sheep blood; conditions: H. pylori, 35° C., 72 hours
[5] = system: clinical isolates of aminoglycoside and erythromycin resistant Streptococcus pneumoniae; assay: MIC, tryptic soy broth with 7% calf serum
E. coli strain DH5α = assay: MIC, two fold serial dilution in 2xYT broth; conditions: Escherichia coli, 37° C., 18 hours
[6] = system: Enterobacter cloacae (American Type Culture Collection number 13047); assay: MIC, two fold serial dilution in 2xYT broth; conditions: 37° C., 18 hours
[7] = system: Klebsiella pneumoniae (American Type Culture Collection number 13883); assay: MIC, two fold serial dilution in 2xYT broth; conditions: 37° C., 18 hours
[8] = system: Staphylococcus capitis (American Type Culture Collection number 35661); assay: MIC, two fold serial dilution in 2xYT broth; conditions: 37° C., 18 hours
[9] = system: Enterobacter cloacae ATCC 13047; assay: MIC, Microdilution Broth Method (NCCLS); conditions: ATCC13047
[10] = system: Micrococcus luteus ATCC 9341; assay: MIC, Microdilution Broth Method (NCCLS); conditions: ATCC9341
[11] = system: Staphylococcus aureus ATCC 25923 MSSA; assay: MIC, Microdilution Broth Method (NCCLS)
[12] = system: Staphylococcus aureus ATCC 29213 MSSA; assay: MIC, Microdilution Broth Method (NCCLS)
[13] = system: Staphylococcus aureus ATCC 6538 MSSA; assay: MIC, Microdilution Broth Method (NCCLS)
[14] = system: Staphylococcus epidermidis ATCC 1228; assay: MIC, Microdilution Broth Method (NCCLS); conditions: ATCC1228
[15] = system: Staphylococcus epidermidis ATCC 27626; assay: MIC, Microdilution Broth Method (NCCLS); conditions: ATCC27626
[16] = system: Enterococcus faecalis ATCC 29212; assay: MIC, Microdilution Broth Method (NCCLS)
[17] = system: Enterococcus faecalis (Vancomycin resistant strain); assay: MIC, Microdilution Broth Method (NCCLS)
[18] = system: Escherichia coli ATCC 25922; assay: MIC, Microdilution Broth Method (NCCLS); conditions: ATCC25922
[19] = system: Escherichia coli ATCC 12014; assay: MIC, Microdilution Broth Method (NCCLS); conditions: ATCC12014
[20] = system: Pseudomonas aeruginosa ATCC 27853; assay: MIC, Microdilution Broth Method (NCCLS); conditions: ATCC27853
[21] = system: Morganella morganii ATCC 36030; assay: MIC, Microdilution Broth Method (NCCLS); conditions: ATCC36030
[22] = system: Klebsiella pneumoniae ATCC 13883; assay: MIC, Microdilution Broth Method (NCCLS); conditions: ATCC13883
[23] = system: Mycobacterium ranae (American Type Culture Collection number 110); assay: MIC, Brain Heart Infusion broth; conditions: M. ranae, 37° C., 48 hours
[24] = Micrococcus luteus ATCC 9341, read-out: MIC
[25] = Staphylococcus aureus ATCC 25923 MSSA, read-out: MIC
[26] = Staphylococcus aureus ATCC 29213 MSSA, read-out: MIC
[27] = Staphylococcus aureus ATCC 6538 MSSA, read-out: MIC
[28] = Staphylococcus epidermidis ATCC 1228, read-out: MIC
[29] = Staphylococcus epidermidis ATCC 27626, read-out: MIC
[30] = ATCC29212, Enterococcus faecalis ATCC 29212, Gram-positive table, read-out: MIC
[31] = Enterococcus faecalis ATCC 29212, table of multi-resistant clinical isolate
[32] = Enterococcus faecalis (Vancomycin resistant strain), Gram-positive table, read-out: MIC
[33] = Enterococcus faecalis Vancomycin resistant strain (multi-resistant clinical isolate)
[34] = ATCC29212, Enterococcus faecalis ATCC 29212, table of multi-resistant clinical isolate, read-out: MIC
[35] = Enterococcus faecalis Vancomycin resistant strain (multi-resistant clinical isolate), read-out: MIC
[36] = Enterococcus faecalis, ATCC29212
[37] = Streptococcus pneumoniae, S. pneumoniae, tryptic soy broth, 7% calf serum, 37° C., 48 hours, read-out: MIC
[38] = Pseudomonas aeruginosa, read-out: MIC
[39] = Helicobacter pylori, read-out: MIC

Compound: gentamycin [reference compound]
- MIC [1]: 0.78 µg/mL
- MIC [2]: 0.39 µg/mL
- MIC [3]: 0.78 µg/mL
- MIC [4]: 0.78 µg/mL
- MIC ([5]; S. pneumoniae, tryptic soy broth, 7% calf serum, 37° C., 48 hours): 100 µg/mL

Compound: NC[C@H]1O[C@H](O[C@H]2[C@H](O)[C@@H](O[C@H]3O[C@H](CO)[C@@H](O)[C@H](N)[C@H]3O)[C@H](N)C[C@@H]2N)[C@H](O)[C@@H](O)[C@@H]1O [kanamycin]
- MIC (E. coli strain DH5α): 12.5 µM (≈ 6.06 µg/mL)
- MIC [6]: 50 µM (≈ 24.2 µg/mL)
- MIC [7]: 25 µM (≈ 12.1 µg/mL)
- MIC [8]: < 1.56 µM

Compound: CC1(C)S[C@@H]2[C@H](NC(=O)C(C(=O)O)c3ccccc3)C(=O)N2[C@H]1C(=O)O (stereo partly drawn) [carbenicillin]
- MIC (E. coli strain DH5α): 25 µM (≈ 9.46 µg/mL)
- MIC [6]: > 200 µM
- MIC [7]: 200 µM (≈ 75.7 µg/mL)
- MIC [8]: < 1.56 µM

Compound: CCCCC(CN(O)C=O)C(=O)N[C@H](C(=O)N(C)C)C(C)(C)C (stereo partly drawn) [Compound 3, 2R (or S)-[(Formyl-hydroxy-amino)-methyl]-hexanoic acid-(1S-dimethylcarbamoyl-2,2-dimethyl-propyl)-amide]
- MIC [9]: 32 µg/mL (≈ 97.1 µM)
- MIC [10, 24]: 0.5 µg/mL (≈ 1.52 µM)
- MIC [11, 25]: 16 µg/mL (≈ 48.6 µM)
- MIC [12, 26]: 8 µg/mL (≈ 24.3 µM)
- MIC [13, 27]: 4 µg/mL (≈ 12.1 µM)
- MIC [14, 28]: 4 µg/mL (≈ 12.1 µM)
- MIC [15, 29]: 2 µg/mL (≈ 6.07 µM)
- MIC [16, 30]: 32 µg/mL (≈ 97.1 µM)
- MIC [16, 31]: 32 µg/mL (≈ 97.1 µM)
- MIC [17, 32]: 8 µg/mL (≈ 24.3 µM)
- MIC [17, 33]: 8 µg/mL (≈ 24.3 µM)
- MIC [18]: 4 µg/mL (≈ 12.1 µM)
- MIC [19]: 4 µg/mL (≈ 12.1 µM)
- MIC [20]: 128 µg/mL (≈ 389 µM)
- MIC [21]: > 128 µg/mL
- MIC [22]: 16 µg/mL (≈ 48.6 µM)

Compound: CN(C)C(=O)[C@@H](NC(=O)C(CC1CCCC1)CN(O)C=O)C(C)(C)C (stereo partly drawn) [Cpd 4, 2R (or S)-[(Formyl-hydroxy-amino)-methyl]-3-cyclopentyl-propionic acid (1S-dimethyl-carbamoyl-2,2-dimethyl-propyl)-amide]
- MIC [16, 34]: 8 µg/mL (≈ 22.5 µM)
- MIC [17, 35]: 4 µg/mL (≈ 11.3 µM)

Compound: CN[C@H](CC(C)C)C(=O)N[C@H]1C(=O)N[C@@H](CC(N)=O)C(=O)N[C@H]2C(=O)N[C@H]3C(=O)N[C@H](C(=O)N[C@H](C(=O)O)c4cc(O)cc(O)c4-c4cc3ccc4O)[C@H](O)c3ccc(c(Cl)c3)Oc3cc2cc(c3O[C@@H]2O[C@H](CO)[C@@H](O)[C@H](O)[C@H]2O[C@H]2C[C@](C)(N)[C@H](O)[C@H](C)O2)Oc2ccc(cc2Cl)[C@H]1O [Vancomycin, reference compound]
- MIC ([10]; Micrococcus luteus): 0.25 µg/mL (≈ 0.173 µM)
- MIC ([11]; Staphylococcus aureus): 0.5 µg/mL (≈ 0.345 µM)
- MIC ([12]; Staphylococcus aureus): 0.25 µg/mL (≈ 0.173 µM)
- MIC ([13]; Staphylococcus aureus): 0.5 µg/mL (≈ 0.345 µM)
- MIC ([14]; Staphylococcus epidermidis): 0.5 µg/mL (≈ 0.345 µM)
- MIC ([15]; Staphylococcus epidermidis): 0.5 µg/mL (≈ 0.345 µM)
- MIC [16, 31]: 1 µg/mL (≈ 0.69 µM)
- MIC [16, 36]: 1 µg/mL (≈ 0.69 µM)
- MIC ([17]; Enterococcus faecalis): > 128 µg/mL
- MIC [17, 33]: >128 µg/mL

Compound: CC[C@H]1OC(=O)[C@H](C)[C@@H](O[C@H]2C[C@@](C)(OC)[C@@H](O)[C@H](C)O2)[C@H](C)[C@@H](O[C@@H]2O[C@H](C)C[C@H](N(C)C)[C@H]2O)[C@](C)(O)C[C@@H](C)C(=O)[C@H](C)[C@@H](O)[C@]1(C)O [Erythromycin, erythromycin]
- MIC [5, 37]: 100 µg/mL (≈ 136 µM)
- MIC [16, 34]: 2 µg/mL (≈ 2.73 µM)
- MIC [17, 35]: > 128 µg/mL

Compound: CC(C)(O/N=C(\C(=O)N[C@@H]1C(=O)N2C(C(=O)[O-])=C(C[n+]3ccccc3)CS[C@H]12)c1csc(N)n1)C(=O)O [Ceftazidime]
- MIC [16, 36]: 128 µg/mL (≈ 234 µM)
- MIC ([17]; Enterococcus faecalis): > 128 µg/mL

Compound: O=C(N[C@H](CO)[C@H](O)c1ccc([N+](=O)[O-])cc1)C(Cl)Cl [chloramphenicol]
- MIC (E. coli strain DH5α): 3.12 µM (≈ 1.01 µg/mL)
- MIC [6]: 25 µM (≈ 8.08 µg/mL)
- MIC [7]: 12.5 µM (≈ 4.04 µg/mL)
- MIC [8]: 6.25 µM (≈ 2.02 µg/mL)

Compound: CCCCC(CN(O)C=O)C(=O)N[C@H](C(=O)NC)C(C)(C)C (single isomer, unassigned) [Compound 1, 2R (or S)-[(Formyl-hydroxy-amino)-methyl]-hexanoic acid-(2,2-dimethyl-1S-methyl-carbamoyl-propyl)-amide]
- MIC (E. coli strain DH5α): 12.5 µM (≈ 3.94 µg/mL)
- MIC [6]: 50 µM (≈ 15.8 µg/mL)
- MIC [7]: 25 µM (≈ 7.89 µg/mL)
- MIC [8]: 100 µM (≈ 31.5 µg/mL)
- MIC [23]: 0.78 µg/mL (≈ 2.47 µM)
- MIC ([1]; Staphylococcus aureus, read-out: MIC): 3.13 µg/mL (≈ 9.92 µM)
- MIC ([2]; Klebsiella pneumoniae, read-out: MIC): 0.2 µg/mL (≈ 0.634 µM)
- MIC [3, 38]: 12.5 µg/mL (≈ 39.6 µM)
- MIC [4, 39]: 0.1 µg/mL (≈ 0.317 µM)
- MIC [5, 37]: 50 µg/mL (≈ 159 µM)
- MIC [9]: 32 µg/mL (≈ 101 µM)
- MIC [10, 24]: 0.5 µg/mL (≈ 1.59 µM)
- MIC [11, 25]: 16 µg/mL (≈ 50.7 µM)
- MIC [12, 26]: 32 µg/mL (≈ 101 µM)
- MIC [13, 27]: 8 µg/mL (≈ 25.4 µM)
- MIC [14, 28]: 8 µg/mL (≈ 25.4 µM)
- MIC [15, 29]: 8 µg/mL (≈ 25.4 µM)
- MIC [16, 30]: 32 µg/mL (≈ 101 µM)
- MIC [17, 32]: 128 µg/mL (≈ 406 µM)
- MIC [18]: 4 µg/mL (≈ 12.7 µM)
- MIC [19]: 4 µg/mL (≈ 12.7 µM)
- MIC [20]: > 128 µg/mL
- MIC [21]: 128 µg/mL (≈ 406 µM)
- MIC [22]: 16 µg/mL (≈ 50.7 µM)

Compound: C[C@@H](O)[C@H]1C(=O)N2C(C(=O)O)=C(SCCN=CN)C[C@H]12 [Imipenem]
- MIC [16, 34]: 1 µg/mL (≈ 3.34 µM)
- MIC [17, 35]: > 128 µg/mL

Compound: CC1(C)S[C@@H]2[C@H](NC(=O)[C@H](N)c3ccccc3)C(=O)N2[C@H]1C(=O)O [Ampicillin, ampicillin]
- MIC [3, 38]: 100 µg/mL (≈ 286 µM)
- MIC [4, 39]: 0.1 µg/mL (≈ 0.286 µM)
- MIC ([5]; Streptococcus pneumoniae, 48 h): 3.13 µg/mL (≈ 8.96 µM)
- MIC [16, 34]: 0.5 µg/mL (≈ 1.43 µM)
- MIC [17, 35]: > 128 µg/mL
